In data set [1] the test system is Breast cancer cells, MDA MB 468. Kind of data set: breast cancer xenograft model (Example 11). It counts as in vivo, SCID mice. The note with it: 30 mg/kg i.p. 3/week, approximately 4 weeks. The protocol: Breast cancer cells, MDA MB 468 (12 million), were injected subcutaneously (s.c.) on the neck of SCID mice (CB17, female, 4-6 weeks old) (Charles River, Wilmington, Mass.). The mice were divided into four groups, 5 mice for each group. The treatments were started when the tumor volume reached about 100 mm^3, day 22 after tumor implantation. […] The tumor sizes were monitored every 3 or 4 days. […] (FIG. 12)

For another data set, the system named is HUV-EC-C cells. Nature of the data set: in vitro angiogenesis assay, tube formation. It counts as cell-based. To be noted: HUV-EC-C on ECMatrix, after 5 hours. As to the method: HUV-EC-C cells were purchased from ATCC and routinely cultured in Ham's F12K medium supplemented with 10% FBS, 2 mM L-glutamine, 1.5 g/L sodium bicarbonate, 0.1 mg/ml heparin and 0.03 mg/ml endothelial cell growth supplement (ECGS).
An In Vitro Angiogenesis Assay kit from Chemicon (Cat#ECL625) was used for testing HUV-EC-C tube formation. Cells were incubated on ECMatrix coated 96-well plate at 8×10^3 cells per well in growth medium with or without NPY, its antagonist MK0557, or DMSO as a control. Inhibition of in vitro endothelial tubule formation by MK0557 was quantitated from photographs after 5 hours by counting the number of tubes in the well (FIG. 7).

Data set [2] has as its system Hodgkin Lymphoma cells, HD-MYZ. Kind of data set: Hodgkin lymphoma xenograft model (Example 5). To be noted: 30 mg/kg ip 2/week, to day 36. It is filed as in vivo, NOD-SCID mice. The protocol:
Hodgkin Lymphoma cells, HD-MYZ, (4 million) were injected subcutaneously on the left flank of 10-12 week old, female NOD-SCID mice (from The Jackson Lab, Cat#001303). […] The mice were sacrificed on day 36 when the experiment ended (FIG. 6).

The conditions of data set [3]: cited from earlier work.
The next data set has as its target T1, mouse NPY6R (Mus musculus, UniProt Q61212).
T1 sequence (Q61212 1-371): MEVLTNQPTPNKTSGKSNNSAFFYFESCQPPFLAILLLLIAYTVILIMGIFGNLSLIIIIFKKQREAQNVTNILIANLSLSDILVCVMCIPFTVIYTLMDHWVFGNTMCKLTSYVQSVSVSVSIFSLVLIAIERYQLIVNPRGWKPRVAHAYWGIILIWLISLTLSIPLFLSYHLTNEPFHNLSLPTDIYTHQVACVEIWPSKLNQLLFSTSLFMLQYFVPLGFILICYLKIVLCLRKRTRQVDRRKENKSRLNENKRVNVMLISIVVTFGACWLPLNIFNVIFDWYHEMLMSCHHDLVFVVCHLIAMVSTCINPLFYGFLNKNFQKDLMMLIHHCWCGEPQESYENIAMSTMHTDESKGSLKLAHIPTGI
The note with it: at a concentration of 10 μM; cited from earlier work.

The subject of a further data set is Rat glioma cells. Nature of the data set: brain cancer xenograft model (Example 7). It is filed as in vivo, CB17-SCID mice. The protocol:
Rat glioma cells (2×10^6) were implanted in CB17-SCID mice. The mice were treated with MK0557 at 30 mg/kg, or vehicle (15% of 0.5%) CMC (carboxymethylcelulose) (low viscosity) and 85% of 0.2% Tween80 in water) intraperitoneally daily for the first week followed by once every two days injections.

In data set [4] the test system is Hodgkin Lymphoma cells, HD-MYZ. Nature of the data set: Hodgkin's lymphoma xenograft model, MK-0557 and 200464 (Example 16). It is filed as in vivo. An excerpt:
Hodgkin lymphoma cells, HD-MYZ, were implanted in NOD-SCID mice, female, 4-6 weeks from Jackson's Laboratory (Maine). The treatments were started day 6 after tumor implantation. The mice were divided to six groups, 4-5 mice from each group. The treatment started with a tumor volume of about 70 mm3 after tumor implantation.

In data set [5] the test system is Colon cancer cells, HCT-15. Kind of data set: colon cancer xenograft model (Example 8). It is filed as in vivo, CB17-SCID mice. As to the method: Colon cancer cells, HCT-15, (1×10^6) were implanted in CB17-SCID mice. The mice were treated with MK0557 at 30 mg/kg or vehicle (15% of 0.5%) CMC (carboxymethylcelulose) (low viscosity) and 85% of 0.2% Tween80 in water) intraperitoneally daily for the first week followed by once every two days injections.

A further data set deals with T2, human NPY1R (Homo sapiens, UniProt P25929).
T2 sequence (P25929 1-384): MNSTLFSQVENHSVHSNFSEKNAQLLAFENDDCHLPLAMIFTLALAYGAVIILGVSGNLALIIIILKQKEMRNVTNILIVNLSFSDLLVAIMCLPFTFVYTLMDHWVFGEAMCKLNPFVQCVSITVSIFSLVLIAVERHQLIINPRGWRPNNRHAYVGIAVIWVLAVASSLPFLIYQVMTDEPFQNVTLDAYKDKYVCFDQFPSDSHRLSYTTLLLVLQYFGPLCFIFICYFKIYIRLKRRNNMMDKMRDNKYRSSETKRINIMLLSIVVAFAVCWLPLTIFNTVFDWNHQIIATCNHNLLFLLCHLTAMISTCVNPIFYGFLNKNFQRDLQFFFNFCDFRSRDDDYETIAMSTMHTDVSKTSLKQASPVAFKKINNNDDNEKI
The note with it: at a concentration of 10 μM; cited from earlier work.

In data set [6] the test system is Ovarian cancer cells, Caov-3. Kind of data set: ovarian cancer xenograft model (Example 10). It counts as in vivo, CB17-SCID mice. The protocol: Ovarian cancer cells, Caov-3 (2 Million), were implanted in CB17-SCID mice. The mice were treated with MK0557 at 30 mg/kg or vehicle (15% of 0.5% of CMC (carboxymethylcellulose, low viscosity) and 85% of 0.2% Tween 80 in water) intraperitoneally daily for the first week followed by once every two days injections. Both the tumor growth and body weights were monitored for the duration of the experiment.

Where [7] appears, read: 30 mg/kg intraperitoneally daily first week then once every two days.
[8] abbreviates: group 4: MK 0557 30 mg/kg i.p. 3 times for each week, versus vehicle.

As to `O=C1O[C@]2(CC[C@H](C(=O)Nc3ccn(-c4ccccc4F)n3)CC2)c2cnccc21` [MK-0557, trans-N-[1-(2-fluorophenyl)-3-pyrazolyl]-3-oxospiro[6 azaisobenzofuran-1(3H), 1′-cyclohexane]-4′carboxamide], the tumor growth entry was “inhibited tumor growth” in data set [1]; “inhibition of tumor growth” in data set [2]; “Tumor growth was inhibited” in the data set on Rat glioma cells (setting [7]); “Tumor growth was inhibited” in data set [5] (setting [7]); “inhibited tumor growth” in data set [6] (setting [7]). The tube formation entry with HUV-EC-C cells is “inhibits tube formation”. Moreover, the “reduction in weight regain” value in data set [3] (following very-low-calorie-diet induced weight loss) is listed as “did not result in a clinically meaningful reduction in weight regain”. Further, the weight loss entry in [3] (overweight or obese adults, 1 mg/day, 5 mg/day or 25 mg/day) is listed as “did not induce clinically meaningful weight loss”. In addition, the “binding to mouse NPY6R” value on mouse NPY6R is “does not significantly bind”. Further, the “effect on mouse body weights” value (in the data set with Rat glioma cells (30 mg/kg intraperitoneally); in data set [5] (30 mg/kg intraperitoneally)) was “no obvious effect” throughout. Also, the “tolerability of the doses by the mice” value in data set [4] (doses of Example 16, except group 6) is given as “well tolerated”. Also, the Mean Tumor Volume in data set [4] (group 4: MK 0557 30 mg/kg i.p. 3 times for each week) is on record as 435.54+/−72.17 mm^3. Also, the “inhibition rate (tumor volume)” value in [4] (setting [8]) is on record as 70.94%. In data set [4] (setting [8]), the “inhibition rate (tumor weight)” value is recorded as 67.30%. For the same compound, in data set [4] (group 4: MK 0557 30 gm/kg i.p. 3 times for each week), the Mean Tumor Weight turned out to be 0.3048 ± 0.0696 g. The “binding to human NPY1R” value at human NPY1R was “does not significantly bind”. Further, in data set [6] (30 mg/kg intraperitoneally), the “change in body weight” value is “not significantly affected”.

(Values after US8765791B2, “Method of treating cancer using a neuropeptide Y 5R (NP Y5R) antagonist” (University Health Network, priority 2008, dated 2014).)
